From PubChem BioAssay (NCI)
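1) Cells in 96-well plates. 2) Compound, 48 h, 5 concentrations. 3) Linear interpolation between surrounding doses. 4) Unreached endpoint = highest concentration. The concentration for 50% growth inhibition is given as GI50. The concentration for full growth arrest is given as TGI.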

What was measured:
Assay in all cases: NCI-60 cell line screen, 48 h
[1] = test system: HOP-62 NSCLC
[2] = test system: T-47D breast
[3] = test system: NCI-H23 lung
[4] = test system: LOX IMVI melanoma
[5] = test system: SF-268 CNS
[6] = test system: MDA-MB-435
[7] = test system: OVCAR-4 ovarian
[8] = test system: HT29 colon
[9] = test system: UACC-62 melanoma
[10] = test system: SN12C renal

## CC(=O)NC1C(OC[C@@H](CC(=O)N[C@@H](CC(=O)O)CC(=O)N[C@H](CC(=O)N[C@@H](CCCN)CC(=O)N[C@@H](CCCN)CC(=O)N[C@H](CC(N)=O)C(C)C)C(C)C)NC(=O)C[C@@H](N)C(C)C)OC(CO)C(O)C1O (stereo not given in full)
[1]
  GI50: > 100 µM
  TGI: > 100 µM
[2]
  GI50: > 100 µM
  TGI: > 100 µM
[3]
  GI50: > 100 µM
  TGI: > 100 µM
[4]
  GI50: > 100 µM
  TGI: > 100 µM
[5]
  GI50: > 100 µM
  TGI: > 100 µM
[6]
  GI50: > 100 µM
  TGI: > 100 µM
[7]
  GI50: > 100 µM
  TGI: > 100 µM
[8]
  GI50: > 100 µM
  TGI: > 100 µM
[9]
  GI50: > 100 µM
  TGI: > 100 µM
[10]
  GI50: > 100 µM
  TGI: > 100 µM
